Reference: patent publication US7968558B2, “Amidine derivatives of 2-heteroaryl-quinazolines and quinolines; potent analgesics and anti-inflammatory agents” (Rottapharm S.p.A., priority 2006, dated 2011)
Counter-ions that a name gives are not always drawn. Like-named read-outs stand apart in the source and are kept apart here.

Experiments:
[1] = tested on: mechanical hyperalgesia associated with STZ-induced diabetes; assay: STZ-induced diabetes mechanical hyperalgesia (neuropathic pain); assay type: in vivo, rat
Procedure: Streptozotocin (STZ)-induced diabetes in the rat has been increasingly used as a model of painful diabetic neuropathy to assess the efficacies of potential analgesic agents (C. Courteix, Pain 1993, 53, 81-8). The compounds of the invention were tested for efficacy in reducing mechanical hyperalgesia associated with STZ-induced diabetes in the rat, according to the experimental model as described by the literature. Diabetes was produced with the injection of a single dose (75 mg/Kg i.p.) of STZ. In the following four weeks after the induction of diabetes the clinical symptoms (weight, body and skin temperature, motility and hyperglycemia) progressively developed by the animals, are strictly monitored. After four weeks, the scores obtained in diabetic rats to various pain stimuli (in particular mechanical stimuli) were grater than those in normal rats, indicating hyperalgesia. The hyperalgesia induced by diabetes was evaluated using the Randall-Selitto method as above described, and quantitated using the analgesimeter. Also in this case, the difference in the mechanical pain threshold between the basal value (generally 230-250 g) and the one tolerated by the animals treated with the drug, is defined as mechanical hyperalgesia. The compounds of the invention were administered i.p. (solution, Tween 80, 10% in saline) at different doses, and mechanical hyperalgesia was measured at the reported time, as maximum percent effect (MPE) which represents the difference (%) in pain threshold between the animals treated with the drug and the controls that received only the vehicle, compared with the weight borne by naïf non-diabetic controls. A 100% protection means that the diabetic animals treated with the compound can tolerate the same stimulus (weight) as the naïf non-diabetic animals. MPE higher than 100% means that the diabetic animal treated with the compound can tolerate stimuli (weight) higher than the control non-diabetic animals (hypoalgesia).

[2] = tested on: Zymosan-induced mechanical hyperalgesia; assay: Zymosan-induced mechanical hyperalgesia (Randall-Selitto); assay type: in vivo, rat; conditions: for ED50: Rattus norvegicus, read-out: Analgesia ED50; for Analgesia ED100: calculated from linear dose-response
Procedure: (§1) The interplantar injection of Zymosan-induced mechanical hyperalgesia was used as a model of inflammatory pain (Meller, Neuropharmacology, 1994, 33, 1471-1478). In this model, typically a male Sprague-Dawley or Wistar rat (200-250 g) receives an interplantar injection of 3 mg/100 μl zymosan into one hind paw. A marked inflammation occurs in this hind paw. Drugs are administered orally for evaluation of efficacy, 30 min. before the inflammatory insult. The hyperalgesia induced by zymosan administration was evaluated using the Randall-Selitto method (Arch. Int. Pharmacodyn., 1957, 111, 409). The quantitation of the analgesic effect is achieved by an analgesimeter, which consist in applying to the inflamed paw an increasing weight (from 130-140 g up to 500 g). The difference in the mechanical pain threshold between the basal value (generally 230-250 g) and the one tolerated by the animals treated with the drug, determined 4 hours after the inflammatory challenge, is defined as mechanical hyperalgesia.
(§2) Mechanical hyperalgesia is expressed for the compounds of the invention as ED50, which is the dose of the administered compound able to increase the pain threshold by 50% in comparison with the group of control animals. The corresponding ED100, representing the dose able of reducing of 100% the pain threshold, can be calculated for those cases where there is a linear dose-response relationship. In vivo anti-inflammatory effect exerted by the compound of the invention can be assessed in the same Zymosan induced inflammation test described above, by measuring the volume of the oedema induced by the inflammatory agent. The oedema was evaluated as the increase in the volume of the Zymosan injected paw within a time of 0-2 hrs. The measurements of the variation of the oedema volume of the paw were recorded using hydroplethysmometer, which consists of two plastic cuvettes containing a surfactant liquid, the larger one being used for immersion of the paw, connected to the smaller one which contains a trans-ducer capable of recording small displacements of the volume used for the measure. The paw is immersed in the cuvettes up to the tibiotarsal joint. The volume of the liquid displaced is proportional to the extent of the inflammation. The efficacy of the compounds of the invention in preventing oedema formation is expressed as ED30, and is measured 2 hours after the inflammatory challenge, and represents the dose able of reducing of 30%, the Zymosan induced paw volume increase in comparison to control animals (animals treated with Zymosan but treated with only distilled water instead of the testing compound). The corresponding ED50, representing the dose able of reducing of 50% the zymosan induced paw volume increase, can be calculated for those cases where there is a linear dose-response relationship.
(§3) In both the experiments, for each test compound, at least three doses were used, with 10 animals per group. Compounds of the invention were tested at 10, 20 and 40 mg/Kg.

[3] = tested on: Zymosan induced paw volume increase; assay: Zymosan-induced paw oedema; assay type: in vivo, rat; conditions: for ED50: Rattus norvegicus, read-out: Oedema Reduction ED50; for Oedema Reduction ED30: 2 hours after challenge
Procedure: as §1, §2, §3

CFA-induced hyperalgesia = assay: CFA model of chronic inflammatory pain; assay type: in vivo, rat
[4] = tested on: acetic acid-induced abdominal writhes; assay: Acetic acid-induced writhing test; assay type: in vivo, mice
Procedure: With the aim of assessing whether the compounds of the invention are able to inhibit responses to peritoneal irritation-induced visceral pain, the acetic acid-induced writhing assay was used in mice to determine the degree of anti-nociception.
The writhing test is a model of inflammatory pain that has long been used as a screening tool for evaluation of analgesic and anti-inflammatory agents (HDJ Collier, B. J. Pharmacol Chemother., 1968, 32, 295-310). The test was performed inducing nociception by an i.p. injection of acetic acid 1%, 0.1 mL/10 g of body weight. Mice were pre-treated (subcutaneously, s.c., three different doses: 3, 10, 30 mg/Kg) with the tested compounds 30 min. before acetic acid injection, while control animals received a similar volume of saline solution. A group of mice was treated with Paracetamol (200 mg/Kg, s.c.) as reference drug. The number of abdominal writhes (full extension of both hind paws) was cumulatively counted every 5 minutes over a period of 20 min. immediately after the acetic acid injection. The anti-nociceptive activity was expressed as inhibition of abdominal writhes as maximum percent effect (MPE), which represents the difference (%) in pain threshold between the animals treated with the drug and the ones that received only the vehicle.

[5] = tested on: formalin-induced paw licking; assay: Formalin (licking) test; assay type: in vivo, mice; conditions: for ED50: Mus musculus, ip
Procedure: The formalin test is increasingly used as a model of injury-produced pain (FV. Abbott, Pain, 1995, 60, 91-102). The procedure used for the evaluation of the compounds of the invention was similar to that reported by literature (S. Hunskaar, Pain, 1987, 30, 103-104), and consisted of the injection of 20 μl of 1% solution of formalin dissolved in distilled water, in the plantar surface of the right hind paw of the mice. Immediately, the animals were placed individually in an observation chamber. The amount of time that the animal spent licking the injected paw, considered indicative of pain, was recorded during 30 min. following formalin injection. The initial nociceptive scores normally peaked 5 min after formalin injection (early phase) and 15-30 min. after formalin injection (late phase), representing both the neurogenic and inflammatory pain responses respectively.
Animals were treated i.p. with an aqueous solution of the tested compound (doses: 3, 10, 30 mg/Kg), 1 hour before the formalin injection. Control animals received only the vehicle.
In Table 8, the analgesic effect elicited in this test by a representative compound of Formula (I), is expressed as ED50 both for the early and late phase, and compared with the performance of the standard reference, paracetamol.

[6] = oral, 30 min before zymosan, 4 hours after challenge
[7] = oral, calculated from linear dose-response

## CN(C)CCC=C1c2ccccc2CCc2ccccc21 [Amitriptyline, reference compound]
[1]; 1 mg/Kg i.p.
  MPE 0.5 hrs.: 72%
  MPE 1.5 hrs.: 89%
[1]; 3 mg/Kg i.p.
  MPE 0.5 hrs.: 44%
  MPE 1.5 hrs.: 40%
  MPE 3 hrs.: 5%
[1]; 10 mg/Kg i.p.
  MPE 0.5 hrs.: 68%
  MPE 1.5 hrs.: 77%
[1]; 30 mg/Kg i.p.
  MPE 0.5 hrs.: 65%
  MPE 1.5 hrs.: 69%
  MPE 3 hrs.: 23%

## Cc1ccc(-c2cc(C(F)(F)F)nn2-c2ccc(S(N)(=O)=O)cc2)cc1 [Celecoxib, reference compound]
[2]; [6]
  ED50: 9 mg/kg
[2]; oral
  Analgesia ED100: 1172 mg/kg
[3]; [7]
  ED50: 644 mg/kg
[3]; oral
  Oedema Reduction ED30: 13.8 mg/kg

## CC(=N)Nc1ccc2nc(-c3ccc4c(c3)CCO4)ncc2c1 [Example 4, N-[2-(2,3-dihydro-benzofuran-5-yl)quinazolin-6-yl]acetamidine dihydrochloride hemihydrate]
[2]
  ED50: 5.8 mg/kg
[2]; oral
  Analgesia ED100: 17 mg/kg
[3]; po
  ED50: 170 mg/kg
[3]; oral
  Oedema Reduction ED30: 25 mg/kg
CFA-induced hyperalgesia; 3 mg/Kg i.p.
  MPE 1.5 hrs.: 44%
CFA-induced hyperalgesia; 10 mg/Kg i.p.
  MPE 0.5 hrs.: 47%
  MPE 1.5 hrs.: 27%
  MPE 3 hrs.: 25%
  MPE 6 hrs.: 66%
  MPE 24 hrs.: 57%
CFA-induced hyperalgesia; 30 mg/Kg i.p.
  MPE 0.5 hrs.: 243%
  MPE 1.5 hrs.: 270%
  MPE 3 hrs.: 170%
  MPE 6 hrs.: 103%
  MPE 24 hrs.: 76%
[1]; 3 mg/Kg i.p.
  MPE 0.5 hrs.: 56%
  MPE 1.5 hrs.: 15%
[1]; 10 mg/Kg i.p.
  MPE 0.5 hrs.: 78%
  MPE 1.5 hrs.: 24%
[1]; 30 mg/Kg i.p.
  MPE 0.5 hrs.: 163%
  MPE 1.5 hrs.: 74%
[4]; 3 mg/Kg s.c., 30 min. before acetic acid
  MPE (%): 18%
[4]; 10 mg/Kg s.c., 30 min. before acetic acid
  MPE (%): 41%
[4]; 30 mg/Kg s.c., 30 min. before acetic acid
  MPE (%): 36%
[4]; Mus musculus, sc
  ED50: 59.6 mg/kg

## COc1ccc2c(c1)c(CC(=O)O)c(C)n2C(=O)c1ccc(Cl)cc1 [Indomethacine]
[5]; i.p., 1 hour before formalin, late phase
  Analgesic effect ED50 (mg/Kg) Late phase: 10 mg/kg

## CN1CC[C@]23c4c5ccc(O)c4O[C@H]2[C@@H](O)C=C[C@H]3[C@H]1C5 [Morphine]
[5]; read-out: Analgesic effect ED50 (mg/Kg) Early phase
  ED50: 4 mg/kg
[5]; read-out: Analgesic effect ED50 (mg/Kg) Late phase
  ED50: 4 mg/kg

## CS(=O)(=O)Nc1ccc([N+](=O)[O-])cc1Oc1ccccc1 [Nimesulide, reference compound]
[2]; [6]
  ED50: 7.4 mg/kg
[2]; oral
  Analgesia ED100: 161 mg/kg
[3]; [7]
  ED50: 33.4 mg/kg
[3]; oral
  Oedema Reduction ED30: 0.5 mg/kg

## CC(=O)Nc1ccc(O)cc1 [Paracetamol]
[4]; 200 mg/Kg s.c.
  MPE (%): 61%
[5]; 1 hour before formalin, early phase, read-out: Analgesic effect ED50 (mg/Kg) Early phase
  ED50: 230 mg/kg
[5]; 1 hour before formalin, late phase, read-out: Analgesic effect ED50 (mg/Kg) Late phase
  ED50: 107 mg/kg

## CN1C(C(=O)Nc2ccccn2)=C(O)c2ccccc2S1(=O)=O [Piroxicam, reference compound]
CFA-induced hyperalgesia; 30 mg/Kg i.p.
  MPE 0.5 hrs.: 102%
  MPE 1.5 hrs.: 111%
  MPE 3 hrs.: 54%
  MPE 6 hrs.: 24%
  MPE 24 hrs.: 38%

## COc1cccc(C2(O)CCCCC2CN(C)C)c1 (centres unmarked) [Tramadol, reference compound]
[2]
  ED50: 25.7 mg/kg
[2]; oral
  Analgesia ED100: 405 mg/kg
[1]; 3 mg/Kg i.p.
  MPE 0.5 hrs.: 26%
  MPE 1.5 hrs.: 53%
  MPE 3 hrs.: 7%
[1]; 10 mg/Kg i.p.
  MPE 0.5 hrs.: 58%
  MPE 1.5 hrs.: 48%
  MPE 3 hrs.: 27%
[1]; 30 mg/Kg i.p.
  MPE 0.5 hrs.: 54%
  MPE 1.5 hrs.: 64%
  MPE 3 hrs.: 23%
[1]; 50 mg/Kg i.p.
  MPE 0.5 hrs.: 81%
  MPE 1.5 hrs.: 60%
  MPE 3 hrs.: 43%
